Test results published in patent US6245743A, “Inhibitors of factor Xa” (COR Therapeutics, Inc., priority 1998, dated 2001).
Square brackets hold non-standard residues; d marks the D form. Peptide text beside a SMILES is read from it. * marks the point of attachment. Hydrocinnamoyl = O=C(CCc1ccccc1)*; dCit = NC(=O)NCCC[C@@H](N)C(=O)O; Boc = CC(C)(C)OC(=O)*

Tests used:
[1] = target: factor Xa (Homo sapiens, UniProt P00742); assay: Factor Xa amidolytic assay (chromogenic substrate S2765); type: biochemical; conditions: read-out: Inhibitory Activity (IC50) Factor Xa
[2] = target: prothrombinase complex (Homo sapiens, UniProt P00742); assay: Prothrombinase inhibition assay, plasma free system (thrombin generation, Chromozym TH); type: biochemical; conditions: read-out: Inhibitory Activity (IC50) Prothrombinase
[3] = system: rabbit venous thrombosis model; assay: Rabbit deep vein (venous) thrombosis model; type: in vivo; conditions: for Hct: mean (SD on next line); for PLT / RBC / WBC: mean±SD
Text: Rabbits were anesthetized with I.M. injections of Ketamine, Xylazine, and Acepromazine cocktail.

[4] = Cuticle bleeding time model in rabbits; type: in vivo, rabbit; conditions: 1500 μg/kg+14.85 μg/kg/min, bleeding time experiments
Method: In an ancillary study, a Cuticle Bleeding Time model was used to evaluate the effect of test compounds on bleeding time (BT) measurements in rabbits. The standardized protocol involved anesthesia and catheterization of rabbits as previously described in this Example 43. To measure BT, a toe nail was cut 5 mm from the base of the cuticle with a canine nail trimming device. Time until cessation of bleeding was recorded by wicking the blood on to BT blotting paper in 30 second intervals. Test compound was administered as a bolus followed by infusion regimen. Two BT measurements were obtained prior to administration of test compound and three BT measurements accomplished serially after initiation of steady state infusion of test compound. BT measurements were allowed to continue for up to 30 minutes at which time it was stopped with application of silver nitrate. Blood samples were obtained just prior to all BT measurements and processed for measurement of hematological and coagulation parameters.

prothrombinase complex, sequence (P00742 235-488 limits assumed): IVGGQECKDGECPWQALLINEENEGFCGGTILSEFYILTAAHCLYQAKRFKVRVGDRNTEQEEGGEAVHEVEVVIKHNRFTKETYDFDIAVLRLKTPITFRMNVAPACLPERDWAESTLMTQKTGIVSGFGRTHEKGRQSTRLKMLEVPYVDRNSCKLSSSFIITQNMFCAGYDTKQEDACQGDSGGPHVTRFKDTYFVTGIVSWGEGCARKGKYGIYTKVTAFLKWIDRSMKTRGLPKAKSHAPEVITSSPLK
prothrombinase complex, sequence (P00742 41-179 limits assumed): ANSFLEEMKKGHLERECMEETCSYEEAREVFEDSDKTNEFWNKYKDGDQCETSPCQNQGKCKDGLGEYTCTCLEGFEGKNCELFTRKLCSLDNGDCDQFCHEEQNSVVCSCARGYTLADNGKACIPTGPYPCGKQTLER
prothrombinase complex, sequence (P12259 29-737 partner limits assumed): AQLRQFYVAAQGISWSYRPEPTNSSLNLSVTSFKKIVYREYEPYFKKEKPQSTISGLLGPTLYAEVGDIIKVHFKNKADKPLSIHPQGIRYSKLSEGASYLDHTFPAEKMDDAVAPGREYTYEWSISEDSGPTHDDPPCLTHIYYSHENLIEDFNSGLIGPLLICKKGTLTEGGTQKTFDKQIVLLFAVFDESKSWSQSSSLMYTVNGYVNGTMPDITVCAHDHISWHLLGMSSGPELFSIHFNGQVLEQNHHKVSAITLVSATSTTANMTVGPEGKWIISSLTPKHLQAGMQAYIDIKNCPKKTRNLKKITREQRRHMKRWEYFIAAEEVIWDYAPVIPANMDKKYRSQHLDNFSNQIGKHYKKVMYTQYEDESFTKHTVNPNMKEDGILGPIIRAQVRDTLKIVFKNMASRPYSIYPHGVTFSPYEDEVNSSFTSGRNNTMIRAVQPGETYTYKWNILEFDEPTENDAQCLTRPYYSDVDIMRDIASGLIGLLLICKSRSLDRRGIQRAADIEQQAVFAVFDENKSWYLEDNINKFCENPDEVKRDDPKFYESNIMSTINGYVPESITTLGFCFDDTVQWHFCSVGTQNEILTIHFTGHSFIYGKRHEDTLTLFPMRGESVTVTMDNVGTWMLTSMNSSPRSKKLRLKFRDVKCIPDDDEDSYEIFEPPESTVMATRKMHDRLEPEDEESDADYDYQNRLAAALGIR
prothrombinase complex, sequence (P12259 1574-2224 partner limits assumed): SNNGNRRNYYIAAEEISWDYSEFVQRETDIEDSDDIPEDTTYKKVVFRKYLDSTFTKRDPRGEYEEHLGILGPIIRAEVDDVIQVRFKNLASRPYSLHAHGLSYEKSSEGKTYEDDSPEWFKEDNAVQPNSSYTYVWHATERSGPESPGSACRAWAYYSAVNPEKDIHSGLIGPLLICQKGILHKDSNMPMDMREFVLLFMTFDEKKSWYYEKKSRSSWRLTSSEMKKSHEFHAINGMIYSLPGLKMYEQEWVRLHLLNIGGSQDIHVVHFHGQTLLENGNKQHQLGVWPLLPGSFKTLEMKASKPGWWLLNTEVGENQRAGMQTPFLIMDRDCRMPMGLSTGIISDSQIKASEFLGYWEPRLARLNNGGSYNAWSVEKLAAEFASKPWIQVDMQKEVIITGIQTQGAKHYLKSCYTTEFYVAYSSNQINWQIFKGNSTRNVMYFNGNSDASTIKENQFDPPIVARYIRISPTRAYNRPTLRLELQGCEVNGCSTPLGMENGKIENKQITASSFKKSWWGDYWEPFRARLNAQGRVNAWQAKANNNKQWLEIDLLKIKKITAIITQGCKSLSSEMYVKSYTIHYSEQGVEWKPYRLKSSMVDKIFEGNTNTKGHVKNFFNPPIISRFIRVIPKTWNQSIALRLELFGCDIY
factor Xa, sequence (P00742 235-488 limits assumed): as the sequence (P00742 235-488 limits assumed) above
factor Xa, sequence (P00742 41-179 limits assumed): as the sequence (P00742 41-179 limits assumed) above

Molecule `CN(C)C(=NCCCC[C@@H](NC(=O)OC(C)(C)C)C(=O)NCC(=O)N[C@H](C=O)CCCNC(=N)N)N(C)C` [Boc-D-Har((CH3)4)-Gly-Arg-H] has an IC50 [1] of 5000 nM and an IC50 [2] of 44000 nM.
`N=C(N)NCCC[C@@H](C=O)NC(=O)CNC(=O)[C@@H](CCCNC(=N)N)NC(=O)C(=O)O` [HOOCCO-D-Arg-Gly-Arg-H, Oxaloyl-D-Arg-Gly-Arg-H] gave an IC50 [2] of 63 nM.
`CC(C)(C)OC(=O)N[C@H](CCCNC(N)=O)C(=O)NCC(=O)N[C@H](C=O)CCCNC(=N)N` [Boc-D-Cit-Gly-Arg-H] (Boc-[dCit]-Gly-Arg-aldehyde) showed an IC50 [1] of 3000 nM.
For `CC(C)(C)OC(=O)N[C@H](CCCNC(=N)N)C(=O)NCC(=O)N[C@H](C=O)CCCNC(=N)N` [Boc-D-Arg-Gly-Arg-H] (Boc-[dR]-Gly-Arg-aldehyde), the Hct ([3]; 200 + 1.98 μg/kg + μg/kg/min) was 36.9%, the PLT ([3]; 200 + 1.98 μg/kg + μg/kg/min) was 393 ± 84 × 10^3 /μL and the RBC ([3]; 200 + 1.98 μg/kg + μg/kg/min) was 5.69 ± 0.14 × 10^6 /μL. For the same molecule, the WBC ([3]; 200 + 1.98 μg/kg + μg/kg/min) was 4.45 ± 0.97 × 10^3 /μL, the Hct ([3]; 600 + 5.94 μg/kg + μg/kg/min) was 35.3% and the PLT ([3]; 600 + 5.94 μg/kg + μg/kg/min) was 442 ± 81 × 10^3 /μL. For the same molecule, the RBC ([3]; 600 + 5.94 μg/kg + μg/kg/min) was 5.74 ± 0.48 × 10^6 /μL, the WBC ([3]; 600 + 5.94 μg/kg + μg/kg/min) was 3.87 ± 0.65 × 10^3 /μL and the Hct ([3]; 1000 + 9.90 μg/kg + μg/kg/min) was 35.5%. For the same molecule, the PLT ([3]; 1000 + 9.90 μg/kg + μg/kg/min) was 375 ± 73 × 10^3 /μL, the RBC ([3]; 1000 + 9.90 μg/kg + μg/kg/min) was 5.71 ± 0.28 × 10^6 /μL and the WBC ([3]; 1000 + 9.90 μg/kg + μg/kg/min) was 5.09 ± 1.61 × 10^3 /μL. The Hct ([3]; 1500 + 14.85 μg/kg + μg/kg/min) was 36.0%, the PLT ([3]; 1500 + 14.85 μg/kg + μg/kg/min) was 433 ± 22 × 10^3 /μL and the RBC ([3]; 1500 + 14.85 μg/kg + μg/kg/min) was 5.80 ± 0.50 × 10^6 /μL. The WBC ([3]; 1500 + 14.85 μg/kg + μg/kg/min) was 4.82 ± 1.01 × 10^3 /μL, the “effects on hematological parameters as compared to saline controls” value ([3]; all dose regimens) was “no significant effects” and the “antithrombotic efficacy in the rabbit venous thrombosis model” value ([3]; bolus + infusion, dose range) was “demonstrated antithrombotic efficacy at the higher doses evaluated”. For the same molecule, the “average increase in PT” value [4] was 1.07 fold and the “average increase in aPTT” value [4] was 1.61 fold.
Work on `N=C(N)NCCC[C@@H](C=O)NC(=O)CNC(=O)[C@@H](CCCNC(=N)N)NC(=O)CCc1ccccc1` [PhCH2 CH2 CO-D-Arg-Gly-Arg-H, 3-Phenylpropanoyl-D-Arg-Gly-Arg-H] (Hydrocinnamoyl-[dR]-Gly-Arg-aldehyde) yielded an IC50 [2] of 1700 nM.
